Experimental data reported in ChEMBL document CHEMBL3507680, “University of Dundee, Gates Library screen for HepG2 cell viability”.

Experiment: Human HepG2 cell viability assay in 384 well format
Assay type: toxicity, cell-based
Design: dose 125 nL, time 70.5 hour; cytotoxicity at 70.5 h: concentration not given beside the values
Details: HepG2 cells, read-out: Inhibition

SMILES	cytotoxicity at 70.5 h
CNC(=O)CN([C@H]1C[C@H]2CCOC[C@H]2C1)S(=O)(=O)c1ccccc1	-5.55%
O=C(O)CN(C(=O)c1ccccc1)[C@H]1C[C@H]2CCOC[C@H]2C1	-10.1%
OC[C@@H]1CN2CCN(c3ccccn3)C[C@@H]2[C@H]1c1ccccc1	-7.31%
CN1CC[C@H](N(Cc2ccccc2)Cc2ccccc2)C[C@H](O)C1	11.2%
CN1C[C@H](O)[C@]2(CCN(Cc3ccc(OC(F)(F)F)cc3)C2)S1(=O)=O	-1.23%
CN1C[C@H](O)[C@]2(CCN(Cc3ccc(F)c(F)c3)C2)S1(=O)=O	13.9%
COc1ccc(CN2CC[C@@]3(C2)[C@H](O)CN(C)S3(=O)=O)cc1F	0.857%
OC[C@H]1CN2CCN(c3ccccn3)C[C@@H]2[C@@H]1c1ccccc1	-5.54%
O=S1(=O)[C@@H](c2ccccc2)[C@H](CO)CN1C1CC1	-1.65%
O=C1c2ncccc2C(CCO)N1Cc1ccccc1 (configuration not stated)	-3.47%
CCCC(O)CN1CCC(=O)N(CCOC)Cc2cc3c(cc21)OCO3 (configuration not stated)	18.9%
COc1ccc2c(c1)CN(C)C(=O)CCN2CC(O)C(F)(F)F (configuration not stated)	11.9%
CCCC(O)CN1CCC(=O)N(C)Cc2cc(F)ccc21 (configuration not stated)	18.5%
CO[C@H]1C(=O)N(C)C2(CCNCC2)[C@@H]1C(=O)Nc1ccccc1	-10.2%
CCOC(=O)N1[C@@H](c2ccco2)[C@@H](CO)C[C@]12CCCCNC2=O	-6.22%
COc1ccc2c(c1)CN(Cc1ccco1)C(=O)CCN2	-10%
O=C1CN(C(=O)C2CCCCC2)CC(O)CN1Cc1ccco1 (configuration not stated)	-4.93%
CC(C)CN1CC(O)CN(S(=O)(=O)c2ccccc2)CC1=O (configuration not stated)	-10.6%
O=C1CN(S(=O)(=O)c2ccc(F)cc2)CC(O)CN1CC1CC1 (configuration not stated)	-9.49%
CCCC1CN(CC(C)C)C(=O)c2cccnc2O1 (configuration not stated)	44%
CCNC(=O)N1CCC(OC)c2ccccc2N(CC(=O)NC)C(=O)C1 (configuration not stated)	-2.79%
CCOC(=O)C1CC2(CCCC2)N2CCC(=O)N12 (configuration not stated)	0.137%
O=C(c1ccco1)N1C(CN2CCOCC2)[C@]2(O)CC[C@H]1CC2 (some centres not stated)	-6%

SMILES	cytotoxicity at 70.5 h
COc1ccc(-c2cnc3c(c2)CN(C2CC2)C(=O)CCN3)cc1	-4.59%
CCOC(=O)[C@@H]1[C@@H](c2ccccc2)CN2CCN(S(C)(=O)=O)C[C@H]12	-6.56%
CNC(=O)[C@@H]1[C@H]2CNCCN2C[C@H]1c1ccccc1	-6.11%
CO[C@H]1CN(C)S(=O)(=O)[C@@]12CCN(Cc1ccccc1)C2	-3.43%
CO[C@@H]1CN(c2ccccc2)S(=O)(=O)[C@@]12CCN(CC1CC1)C2	-6.15%
CO[C@@H]1CN(c2ccccc2)S(=O)(=O)[C@@]12CCN(C(C)=O)C2	-10.5%
CO[C@@H]1CN(c2ccccc2)S(=O)(=O)[C@@]12CCN(C(=O)N(C)C)C2	-5.12%
CC(C)(C)OC(=O)N1CC(=O)N(Cc2ccco2)CC(O)C1 (configuration not stated)	-7.3%
COCC(O)CN1CCC(=O)N(CC2CC2)Cc2ccccc21 (configuration not stated)	-3.32%
COc1ccc(CN2CC(O)CN(C(=O)OCC(C)(C)C)CC2=O)cc1 (configuration not stated)	-2.24%
COc1ccc(C(=O)N2CC(=O)N(Cc3cccs3)CC(O)C2)cc1 (configuration not stated)	-2.23%
O=C1CN(C(=O)c2ccc(F)cc2)CC(O)CN1Cc1cccs1 (configuration not stated)	1.6%
NC(=O)c1ccnc(N2CCCC(CO)(Cc3ccccc3)C2)c1 (configuration not stated)	-5.88%
Nc1nc2c(c(NCC(c3cccnc3)N3CCOCC3)n1)CCCC2 (configuration not stated)	-12.1%
Cc1ocnc1C(=O)N1CCN(C(=O)CC(C)C)[C@@H]2CS(=O)(=O)C[C@@H]21	31.4%
COc1cc(CNc2ccc(C)c(Cl)c2)ccc1OCC(N)=O	-11.9%
O=C(NCCC1COc2ccccc2O1)c1ccc(-c2cn[nH]c2)nc1 (configuration not stated)	4.75%
O=C1CN(c2cc(-c3ccccc3F)nc3ccnn23)CCCN1	-14.6%
CCCc1nc(CN(CC)C(=O)c2onc3ccccc23)no1	17%
CCc1nc(C)c(C(=O)NCC2COc3cc(OC)ccc3C2)o1 (configuration not stated)	42.6%
Cc1ccc([C@H]2CN(C(C)C)C[C@@H]2NS(=O)(=O)N2CCOCC2)o1	-5.29%
OC1(CN2CCCC2)COCCN(c2nccs2)C1 (configuration not stated)	37.8%
COc1ccc(CN2C[C@@H](CN(C)C)[C@@H](CO)C2)c(Cl)c1OC	-7.01%

SMILES	cytotoxicity at 70.5 h
Cc1nccc(N[C@H]2CN(CC(C)(C)N3CCOCC3)C[C@@H]2C2CC2)n1	20.2%
CC(C)c1nc(C2CCCN(C(=O)CCCn3cccn3)C2)no1 (configuration not stated)	-4.14%
Fc1ccc(-c2nnc(CN3CCCC3Cn3cccn3)o2)cc1 (configuration not stated)	-19.8%
Clc1ccccc1-c1nnc(CN2CCCC2Cn2cncn2)o1 (configuration not stated)	-2.55%
CCC(O)CN1CCN(C(=O)c2cc3ccccc3n2CC)CC1 (configuration not stated)	12.7%
CC(C)OCCCNC(=O)CS(=O)(=O)Cc1ccc(C(C)C)cc1	-0.615%
CC(C)OCCCNC(=O)CS(=O)(=O)Cc1ccc(C(C)(C)C)cc1	-5.34%
CC(C)CS(=O)(=O)CC(=O)NC1CCCCNC1=O (configuration not stated)	-7.58%
CCN(CC)S(=O)(=O)N(CC)Cc1ccc2c(c1)OCCO2	-10.6%
CCC(CC)c1nnc(NC(=O)NC(C)Cn2cccn2)s1 (configuration not stated)	12.3%
CN(C)c1ncccc1CNC(=O)NCc1ccc(Cl)s1	-10.4%
Cc1nnc(NC(=O)NC(C)Cn2cccn2)s1 (configuration not stated)	-7.53%
CC(NC(=O)NCc1cccs1)c1ccc2c(c1)CCC(=O)N2 (configuration not stated)	-4.6%
CN(C)c1ncccc1CNC(=O)NCc1cccs1	1.41%
COC(=O)C(NC(=O)CCOC(C)C)c1cc(F)ccc1F (configuration not stated)	18.1%
COC(=O)C(NC(=O)C1CC1)c1cc(F)ccc1F (configuration not stated)	-0.233%
CCOCC(O)CN1CCN(C(=O)c2ccccc2F)CC1 (configuration not stated)	-1.86%
CCNc1cc2c(nn1)CCN(C(=O)c1cccc3c1OCO3)C2	3.22%
CNc1cc2c(nn1)CCN(C(=O)c1ccc3c(c1)OCO3)C2	-8.95%
Nc1cc2c(nn1)CCN(C(=O)c1cccc3c1OCO3)C2	2.4%
Cc1cnn(CCC(=O)N2CCCC(c3noc(C)n3)C2)c1 (configuration not stated)	1.71%
O=C(CCN1CCOC(CNc2cccnn2)C1)NC1CCCCC1 (configuration not stated)	11.1%
NC(=O)C1CCN(C(=O)c2cccn2Cc2cccs2)CC1	-4.99%

SMILES	cytotoxicity at 70.5 h
CC(NC(=O)NCCS(C)(=O)=O)c1ccc2c(c1)CCC(=O)N2 (configuration not stated)	2.87%
Cc1nc(C)c(CN2CCC(N(C)Cc3noc(C4CC4)n3)C2)s1 (configuration not stated)	21.6%
Cc1csc(C2CCCCN2C(=O)c2cn[nH]c2C)n1 (configuration not stated)	16.7%
CCc1cnc(CN2CCC(N(C)Cc3noc(C)n3)C2)o1 (configuration not stated)	17%
Cc1nn(C)c(C)c1C1CCCN1C(=O)CCCNc1ncccn1 (configuration not stated)	-8.51%
CNS(=O)(=O)c1cccc(C(=O)N(C)Cc2ccsc2)c1	-7.55%
Cc1nn(C)c(C)c1C1CCCN1C(=O)CCCc1ccccn1 (configuration not stated)	-4.63%
CC(=O)NCc1ccc(C(=O)N2CCCC2c2cnn(C)c2)cc1 (configuration not stated)	-6.89%
CN(Cc1ccccc1)C(=O)CN1CCCC(Cn2cncn2)C1 (configuration not stated)	-7.31%
COc1ccc(CCNC(=O)N2CCCC(c3nncn3C)C2)cc1 (configuration not stated)	-4.56%
Cc1nc(CN(C)C2CCN(Cc3cnc(C)s3)C2)no1 (configuration not stated)	-3.46%
Cc1nnc(NC(=O)NCc2ccc(F)cc2)s1	-1.95%
Cc1nnc(NC(=O)NCc2ccc(N3CCC(C)CC3)nc2)s1	-8.92%
Cc1nnc(NC(=O)NCc2ccc(N3CCOCC3)nc2)s1	-5.81%
CCN(CC)CCn1c(NC(=O)c2scnc2C)nc2ccccc21	5.56%
Cn1cnnc1C1CCCN(C(=O)NCCn2ccnc2)C1 (configuration not stated)	-10.4%
CCOCCCn1c(NC(=O)c2ccnc(C)n2)nc2ccccc21	25.9%
CN(Cc1ccco1)C(=O)CN1CCCC1Cn1cncn1 (configuration not stated)	3.18%
Cc1ccc(CN(C)C(=O)CN2CCCC(Cn3cncn3)C2)cc1 (configuration not stated)	22.9%
Cc1csc(C2CCCCN2C(=O)c2cc(C3CC3)[nH]n2)n1 (configuration not stated)	-2.5%
CC(=O)N1CCCC1C(=O)NCCOc1c(C)cccc1C (configuration not stated)	-1.77%
CCc1nc2n(n1)CC(NCc1cc(OC)c3c(c1)OCO3)CC2 (configuration not stated)	1.22%
CN(CC(C)(C)O)C1CCCN(Cc2noc(C3CC3)n2)C1 (configuration not stated)	41.7%

SMILES	cytotoxicity at 70.5 h
Cc1cnn(CC(C)NCC(=O)NCCOc2ccccc2)c1 (configuration not stated)	11.7%
Cc1cnn(CCNCC(=O)NCCOc2ccc(F)cc2)c1	-9.5%
CC(C)c1ncncc1C(=O)N1CCCN(Cc2ccccc2)CC1	-15.3%
c1ccc(Cc2noc(CN3CCc4c(ncn4C4CC4)C3)n2)cc1	11.8%
Cc1cc(CN2CCN(C(=O)NCc3csc(C)n3)CC2)on1	-13%
O=C(NCCNc1ncccn1)c1ccc(Br)cc1	-15.1%
Cc1cc(CN2CCN(C(=O)NCc3cccs3)CC2)on1	-14.6%
Cc1cccc(CN(Cc2nc3c(cnn3C)c(=O)[nH]2)C2CC2)c1	-6.88%
CN(Cc1ccc2c(c1)OCCO2)Cc1nc2c(cnn2C)c(=O)[nH]1	-5.53%
CC(C)OCCCNC(=O)CN1C=Nc2ccccc2S1(=O)=O	-7.79%
CCCNC(=O)NC(=O)CN1C=Nc2ccccc2S1(=O)=O	-11.8%
Cc1noc(Cl)c1CCC(=O)N1CCN(c2ccccc2)CC1	7.33%
O=C(CN1C=Nc2ccccc2S1(=O)=O)NCC1CC1	-7.99%
COc1cc(CCC(=O)NC2CCCN(C)C2)ccc1OCC(F)(F)F (configuration not stated)	-7.07%
CCc1ncncc1C(=O)N1CCN(Cc2ccsc2)CC1	7.59%
Cc1cc(NC(=O)CN2CCCC2Cn2nc(C)nc2C)on1 (configuration not stated)	-6.45%
Cc1cnn(C2CN(CC(=O)NCCOc3ccccc3)C2)c1	-4.92%
O=C(COC1CCCCC1)NS(=O)(=O)c1ccc2c(c1)OCCCO2	13.6%
Cc1cc(CN2CCN(C(=O)NCCc3csc(C)n3)CC2)on1	-11.6%
O=C(COC1CCCC1)NS(=O)(=O)c1ccc2c(c1)OCCCO2	-6.27%
